Laboratory results reported in publication PMC6211256, “From cycloheptathiophene-3-carboxamide to oxazinone-based derivatives as allosteric HIV-1 ribonuclease H inhibitors” (Journal of Enzyme Inhibition and Medicinal Chemistry, 2018).
Entries after “also recorded” stand apart in the source; their conditions may differ. Read-outs that look alike come from different tables or passages of the source.

Experiments:
[1] = biological target: T1, HIV-1 RT-associated RNA dependent DNA polymerase (RDDP) (Human immunodeficiency virus type 1 group M subtype B, UniProt P04585); parameters: method as in PMID 26990134; settings: RDDP vs RNase H; cited from earlier work
[2] = biological target: T2, HIV-1 RT-associated RNase H (Human immunodeficiency virus type 1 group M subtype B, UniProt P04585); parameters: method as in PMID 26990134; settings: previously reported value; read-out: IC50, RNase H inhibition; cited from earlier work
[3] = biological target: T2, HIV-1 RT-associated RNase H; assay: HIV-1 DNA polymerase-independent RNase H activity determination (wt RT); type: biochemical
Description: (§1) Heterodimeric RT was expressed essentially as described[19]^,[39]. Using a BioLogic LP system (Biorad), using a combination of immobilised metal affinity (Ni-Sepharose high performance, Healthcare Lifescience) and ion exchange chromatography (Hi-trap heparin HP GE). The protein was dialysed and stored in buffer containing 50 mM Tris HCl pH 7.0, 25 mM NaCl, 1 mM EDTA, and 50% glycerol. Catalytic activities and protein concentrations were determined. Enzyme-containing fractions were pooled and aliquots were stored at −80 °C.
(§2) HIV RT-associated RNase H activity was measured as described[40] using as a control the RNase H selective inhibitor RDS1759[9], and using different amount of enzymes according to a linear range of dose-response curve: 20 ng of WT RT; 75 ng V108F RT; 50 ng Y188A RT; 30 ng W229A RT; 100 ng A502F RT.

[4] = Cytotoxicity in MT-4 cells; settings: human
[5] = biological target: A502F RT (RNase H function) (Human immunodeficiency virus type 1 group M subtype B, UniProt P04585, A1089F); assay: RNase H activity of A502F mutated RT; type: biochemical, HIV-1
Description: as §2

[6] = biological target: T1, HIV-1 RT-associated RNA dependent DNA polymerase (RDDP); assay: HIV-1 RNA-dependent DNA polymerase activity determination (wt RT); type: biochemical
Description: as §1
(§3) RNA-dependent DNA polymerase (RDDP) activity was measured as described[17] using and different amounts of enzymes according to a linear range of dose-response curve: 6 ng wt RT; 19 ng V108F RT; 45 ng Y188A RT; 30 ng W229A RT; A502F RT. The Yonetani-Theorell analysis was performed as previously described[41]^,[42].

[7] = biological target: A502F RT (RDDP function) (Human immunodeficiency virus type 1 group M subtype B, UniProt P04585, A1089F); assay: RDDP activity of A502F mutated RT; type: biochemical, HIV-1; settings: compared with wt RT
Description: as §3

[8] = biological target: W229A RT (RNase H function) (Human immunodeficiency virus type 1 group M subtype B, UniProt P04585, W816A); assay: RNase H activity of W229A mutated RT; type: biochemical, HIV-1; settings: compared with wt RT
Description: as §2

[9] = biological target: V108F RT (RNase H function) (Human immunodeficiency virus type 1 group M subtype B, UniProt P04585, V695F); assay: RNase H activity of V108F mutated RT; type: biochemical, HIV-1; settings: compared with wt RT
Description: as §2

[10] = biological target: HIV-1 RT wild type RNA-dependent DNA polymerase activity (Human immunodeficiency virus type 1 group M subtype B, UniProt P04585); assay: Yonetani-Theorell analysis of combination with EFV on RDDP function; type: biochemical; settings: compound 22 at 10 and 30 μM with EFV
Description: as §3

[11] = Interaction between Mg2+ and HIV-1 RT inhibitors (UV-Vis spectra with MgCl2); type: physicochemical; settings: 100 µM compound, MgCl2 up to 1.25 mM
Description: The effects of the magnesium ions were evaluated by mean of spectrophotometric method as reported, using a Ultrospec 2100 pro UV-Vis spectrophotometer (Amersham Biosciences) and Hellma quartz cuvette with 1 cm optical path. […]. Each studied compound was dissolved in DMSO to a final concentration of 10 mM and diluted in milliQ water to a final concentration of 100 µM. Each obtained solution was placed in a cuvette and the UV-Vis and the spectra were recorded between 200 and 700 nm using water milliQ (with a percentage of DMSO equal to the one present in the sample solution) as reference. Thereafter, small volumes of MgCl2 aqueous solution were added both in the sample and in the reference cuvettes to obtain a series of solutions containing increasing concentrations of MgCl2, up to 1.25 mM, carefully pipetting to mix, and the UV-Vis spectra were repeated. Each experiment was performed in triplicate.

[12] = biological target: W229A RT (RDDP function) (Human immunodeficiency virus type 1 group M subtype B, UniProt P04585, W816A); assay: RDDP activity of W229A mutated RT; type: biochemical, HIV-1; settings: compared with wt RT
Description: as §3

[13] = biological target: V108F RT (RDDP function) (Human immunodeficiency virus type 1 group M subtype B, UniProt P04585, V695F); assay: RDDP activity of V108F mutated RT; type: biochemical, HIV-1
Description: as §3

[14] = biological target: Y188A RT (RDDP function) (Human immunodeficiency virus type 1 group M subtype B, UniProt P04585, Y775A); assay: RDDP activity of Y188A mutated RT; type: biochemical, HIV-1
Description: as §3

[15] = biological target: p66/p51 HIV-1 RT (Human immunodeficiency virus type 1 group M subtype B, UniProt P04585); type: binding; settings: increasing concentration of compound; 100 ng/µl HIV-1 RT
[16] = biological target: Y188A RT (RNase H function) (Human immunodeficiency virus type 1 group M subtype B, UniProt P04585, Y775A); assay: RNase H activity of Y188A mutated RT; type: biochemical, HIV-1; settings: compared with wt RT
Description: as §2

[17] = wt RT, read-out: IC50, HIV-1 RT-associated RNase H activity

Compound | IC50 [3, 17] [µM] | CC50 [4] [µM] | other results
O=C(Nc1sc2c(c1C(=O)Nc1ccccn1)CCCCC2)c1ccc(O)c(O)c1 [Compound 1] |  |  | weaker potency against the polymerase activity with respect to RNase H activity [1]: 20 fold; IC50 [2]: 0.84 µM
Nc1sc2c(c1C(=O)Nc1ccc(Cl)cc1)CCCCC2 [Compound 5] | 16.5 |  | 
NC(=O)c1c(NC(=O)c2ccc(O)c(O)c2)sc2c1CCCCC2 [Compound 6, 2-[(3,4-Dihydroxybenzoyl)amino]-5,6,7,8-tetrahydro-4H-cyclohepta[b]thiophene-3-carboxamide] | 2.6 |  | 
COc1ccccc1C(=O)Nc1sc2c(c1C(N)=O)CCCCC2 [Compound 7, 2-[(2-Methoxybenzoyl)amino]-5,6,7,8-tetrahydro-4H-cyclohepta[b]thiophene-3-carboxamide] | 14 |  | 
O=c1oc(-c2ccc(O)c(O)c2)nc2sc3c(c12)CCCCC3 [Compound 10, 2–(3,4-Dihydroxyphenyl)-6,7,8,9-tetrahydro-4H,5H-cyclohepta[4,5]thieno[2,3-d][1,3]oxazin-4-one] | 1.1 | 27 to 300 | IC50 ([3]; compound added after the RNA:DNA duplex substrate, read-out: IC50, RNase H activity, compound added after the RNA:DNA duplex substrate): 11 µM
O=c1oc(-c2ccccc2O)nc2sc3c(c12)CCCCC3 [Compound 12, 2–(2-Hydroxyphenyl)-6,7,8,9-tetrahydro-4H,5H-cyclohepta[4,5]thieno[2,3-d][1,3]oxazin-4-one] | 18.2 |  | 
O=c1oc(-c2ccc(O)c(O)c2)nc2sc3c(c12)CCCC3 [Compound 20, 2–(3,4-Dihydroxyphenyl)-5,6,7,8-tetrahydro-4H-[1]benzothieno[2,3-d][1,3]oxazin-4-one] | 3.35 | 27 to 300 | 
O=c1oc(-c2ccc(O)c(O)c2)nc2sc3c(c12)CCC3 [Compound 21, 2–(3,4-Dihydroxyphenyl)-6,7-dihydro-4H,5H-cyclopenta[4,5]thieno[2,3-d][1,3]oxazin-4-one] | 1 | 27 to 300 | 
O=c1oc(-c2ccc(O)c(O)c2)nc2sc3ccccc3c12 [Compound 22, 2–(3,4-Dihydroxyphenyl)-4H-[1]benzothieno[2,3-d][1,3]oxazin-4-one] | 0.53 | 27 to 300 | IC50 [5]: > 100 µM; IC50 [6]: 2.9 µM; effect of A502F substitution on inhibition of RDDP [7]: not significantly affecting; effect of W229A substitution on inhibition of RNase H [8]: did not significantly affect; effect of V108F substitution on inhibition of RNase H [9]: no significant effect; Yonetani-Theorell: combined RDDP inhibition with EFV [10]: kinetically mutually exclusive; magnesium complexation (UV-Vis spectra) [11]: did not show any shift in the maximum of absorbance; also recorded: unable to chelate Mg^2+ ions; effect of W229A substitution on inhibition of RDDP [12]: did not significantly affect; IC50 [13]: 10.6 µM; IC50 [14]: 9.64 µM; change of RT melting temperature (Tm) [15]: dose-dependent increase in the RT Tm; effect of Y188A substitution on inhibition of RNase H [16]: no significant effect
O=c1oc(-c2ccc(O)c(O)c2)nc2c3c(sc12)CCCCC3 [Compound 23, 2–(3,4-Dihydroxyphenyl)-7,8,9,10-tetrahydrocyclohepta[4,5]thieno[3,2-d][1,3]oxazin-4(6H)-one] |  | 27 to 300 | 
O=c1oc(-c2ccc(O)c(O)c2)nc2c1sc1ccccc12 [Compound 24, 2–(3,4-Dihydroxyphenyl)-4H-[1]benzothieno[3,2-d][1,3]oxazin-4-one] | 0.96 | 27 to 300 | IC50 [6]: 14.6 µM; magnesium complexation (UV-Vis spectra) [11]: did not show any shift in the maximum of absorbance; also recorded: unable to chelate Mg^2+ ions; change of RT melting temperature (Tm) [15]: dose-dependent increase in the RT Tm
O=c1oc(-c2ccc(O)c(O)c2)nc2c1CCCCC2 [Compound 25, 2–(3,4-Dihydroxyphenyl)-6,7,8,9-tetrahydrocyclohepta[d][1,3]oxazin-4(5H)-one] |  | 27 to 300 | 
O=c1oc(-c2ccc(O)c(O)c2)nc2ccccc12 [Compound 26, 2–(3,4-Dihydroxyphenyl)-4H-3,1-benzoxazin-4-one] |  | 27 to 300 | 
O=c1[nH]c(-c2ccc(O)c(O)c2)nc2ccccc12 [Compound 27, 2–(3,4-Dihydroxyphenyl)quinazolin-4(3H)-one] |  | 27 to 300 | 
